Usually inhibition stands for the relative decrease from the control value, in per cent. As a reminder, the Ki is the dissociation constant of the complex between target and ligand, obtained from inhibition or displacement. A low value points to tighter binding. One may read the IC50 as the concentration that gives 50% inhibition.

“And” between values parts separate entries of the source, which are not always exact repeats. Identical values can stand only once. Counter-ions that a name gives are not always drawn.

One assay deals with T1, β-secretase (BACE) (Homo sapiens, UniProt P56817).
T1 construct: purchased Panvera
In words: BACE FS1 Assay (% Inhibition and Ki). Type of assay: biochemical. The settings on record: FS1 substrate; for inhibition at 0.3 µM: 0.3 μM test compound, read-out: % Inhibition (FS) @ 0.3 μM; for inhibition at 1 µM: 1 μM test compound, read-out: % Inhibition (FS) @ 1 μM; for inhibition at 3 µM: 3 μM test compound, read-out: % Inhibition (FS) @ 3 μM. Here is the method: BACE FS1 Assay (% Inhibition and Ki)
The following reagents were used in this assay: sodium acetate, PEG8000 (Sigma), DMSO, HEPES, FS1 substrate [R(AedensE)[…]-(DabcylK)R], β-secretase (BACE) (Panvera), and 96-well plate (HE microplate, Molecular Devices).
The following assay buffers were prepared and used in this assay: (1) enzyme assay buffer (0.05 M sodium acetate, pH5, 0.1% PEG8000 (w/v)), (2) substrate assay buffer (0.05 M sodium acetate, pH5), and (3) compound vehicle (30% DMSO in 50 mM HEPES, pH 7.4).
The FS1-substrate stock solution was prepared in DMSO as a 10 mg/mL solution. The FS1-substrate working solution was prepared by diluting the 10 mg/mL stock solution with substrate assay buffer to a final concentration of 300 μg/mL. The β-secretase (BACE) working solution was prepared by diluting a 0.83 mg/mL BACE stock solution with enzyme assay buffer to a final concentration of 4 μg/mL.
Test compounds were dissolved in DMSO to 10 mM. Compounds were further diluted in vehicle to various concentrations in the range of 405 μM to 4.05 μM (13.5× final compound concentration in screening plate).
The screening procedure for this assay was as follows: 15 μL of BACE working solution was pipetted into each well of a 96-well plate. To each well was then pipetted 2 μL of test compound at the selected concentration. Test compound and BACE were then mixed with a pipettor and incubated for 20 min at room temperature. To each well was then added 10 μL of the FS1 substrate working solution. The plates were then incubated for 1 hour at room temperature. The fluorescence for each well was then measured on an LJL analyst (Ex 360 nm/Em 530 nm).
The procedure for the blank was as follows. 15 μL of assay buffer was pipetted into each well to be used as a blank control. To each well was then added 2 μL of vehicle and […] of FS1-substrate working solution. The plates were then incubated for 1 hour at room temperature. The fluorescence was measured on an LJL analyst (Ex 360 nm/Em 530 nm).
The procedure for the positive control was as follows: 15 μL of BACE working solution was pipetted into each well to be used as a positive control. To each well was then pipetted 2 μL of vehicle. Vehicle and BACE were then mixed with a pipettor and incubated for 20 min at room temperature. To each well was then added 10 μL of the FS1 substrate working solution. The plates were then incubated for 1 hour at room temperature. The fluorescence (F1) was then measured on an LJL analyst (Ex 360 nm/Em 530 nm).
For test compounds, % inhibition was determined at each concentration as follows:
% Inhibition values of less than 30% were indistinguishable from control are listed as ≦30% in Table 18, below.
For test compounds, measured at multiple concentrations, the measured T0 and T60 values were used to calculate an IC50 value using Graphpad Software (or PIR). Ki inhibition was determined as follows: For each compound concentration and positive control, rate of cleavage of substrate (Vi, where i=compound concentration in μM) was determined as Δ Fluorescence/Δ time (min). Cleavage rates (Vi) were plotted as a function of inhibitor concentration in μM [I]. […]

The target of the next assay is human BACE-1 (Homo sapiens, UniProt P56817). In words: CEREP BACE Inhibition Assay. Conditions: recombinant enzyme. Type of assay: biochemical. The procedure, abridged:
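Recombinant human BACE-1 (0.25 μg) was assayed in 0.09 M sodium acetate pH 4.5, with activity followed fluorimetrically as formation of Mca-S-E-V-N-L[…] from peptide substrate. Compound autofluorescence was checked at the detection wavelengths. Basal signal was taken from wells without substrate.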

The mark [1] stands for this setting: 0.3 μM, percent inhibition of the control activity.

T1 sequence (P56817 46-501): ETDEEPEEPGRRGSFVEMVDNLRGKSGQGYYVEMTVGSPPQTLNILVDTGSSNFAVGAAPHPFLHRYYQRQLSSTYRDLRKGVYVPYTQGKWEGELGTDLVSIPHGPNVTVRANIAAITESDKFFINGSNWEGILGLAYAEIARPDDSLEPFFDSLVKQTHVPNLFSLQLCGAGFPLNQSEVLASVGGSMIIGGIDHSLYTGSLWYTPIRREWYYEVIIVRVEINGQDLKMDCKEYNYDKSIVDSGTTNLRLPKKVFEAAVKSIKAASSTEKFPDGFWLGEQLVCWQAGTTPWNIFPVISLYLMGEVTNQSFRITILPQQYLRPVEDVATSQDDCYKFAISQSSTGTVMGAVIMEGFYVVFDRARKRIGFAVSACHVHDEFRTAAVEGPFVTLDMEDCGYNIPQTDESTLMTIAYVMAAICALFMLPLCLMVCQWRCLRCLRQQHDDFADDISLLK
Chain of human BACE-1 (P56817 46-501): as above

Consider `NC1=Nc2cnc(Oc3ccccc3)cc2CN1[C@@H](CCC(=O)N(CCO)C1CCCCC1)C1CCCCC1` [Compound 7, 4-(2-Amino-6-phenoxy-4H-pyrido[3,4-d]pyrimidin-3-yl)-4S,N-dicyclohexyl-N-(2-hydroxy-ethyl)-butyramide], for which, on β-secretase (BACE), the inhibition at 0.3 µM worked out at 136%, the inhibition at 1 µM was 136%, the inhibition at 3 µM came out at 134% and the Ki was 0.01 µM. Moreover, on human BACE-1 (setting [1]), the “% Inhibition @ 0.3 μM” value was 95% and 100%; the inhibition at 0.3 µM came to 91%. Besides, the 50% inhibitory concentration (IC50) at human BACE-1 (read-out: IC50) was 0.14 µM and 0.15 µM.
With `NC1=Nc2cnc(Oc3ccccc3)cc2CN1[C@@H](CCC(=O)N(CCO)[C@H]1CC[C@@H](C(=O)O)CC1)C1CCOCC1` [Compound 38, 4-[[4-(2-Amino-6-phenoxy-4H-pyrido[3,4-d]pyrimidin-3-yl)-4-(S)-(tetrahydro-pyran-4-yl)-butyryl]-(2-hydroxy-ethyl)-amino]-cyclohexanecarboxylic acid], at β-secretase (BACE), the inhibition at 0.3 µM came to 112%, the inhibition at 1 µM came out at 110%, the inhibition at 3 µM is 115% and the affinity corresponds to a Ki of 0.009 µM.
Turning to `CCC(CC)N(CCO)C(=O)CC[C@@H](C1CCCCC1)N1Cc2cc(Oc3ccccc3)ncc2N=C1N` [Compound 50], on β-secretase (BACE), the inhibition at 0.3 µM was determined as 68%, the inhibition at 1 µM was determined as 100%, the inhibition at 3 µM turned out to be 112% and the affinity corresponds to a Ki of 0.058 µM.
On to `CC(C)[C@H](CCC(=O)N[C@H](CO)C(=O)O)N1Cc2cc(Oc3ccccc3)ncc2N=C1N` [Compound 30], for which, on β-secretase (BACE), the inhibition at 0.3 µM was 91%, the inhibition at 1 µM is 106%, the inhibition at 3 µM stood at 117% and affinity was put at a Ki of 0.097 µM.
As for `CC(C)[C@H](CCC(=O)N(C)[C@@H](COCc1ccccc1)C(=O)O)N1Cc2cc(Oc3ccccc3)ncc2N=C1N` [Compound 52, 2-{[4-(2-Amino-6-phenoxy-4H-pyrido[3,4-d]pyrimidin-3-yl)-5-methyl-(S)-hexanoyl]-methyl-amino}-3-(S)-benzyloxy-propionic acid trifluoroacetate salt], on β-secretase (BACE), the inhibition at 0.3 µM was 107%; the inhibition at 1 µM came to 118%; the inhibition at 3 µM amounted to 118%; the affinity, expressed as Ki, was 0.009 µM.
For the compound `CCOC(=O)C1CCC(N(C)C(=O)CCC(C2CCCCC2)N2Cc3cc(Oc4ccccc4)ncc3N=C2N)CC1` (stereo not shown) [Compound 17], at β-secretase (BACE), the inhibition at 0.3 µM turned out to be 4%, the inhibition at 1 µM was determined as 61%, the inhibition at 3 µM is 86% and the Ki worked out at 0.222 µM.
For the compound `NC1=Nc2cnc(Oc3ccccc3)cc2CN1CCNC(=O)C1CCCCC1` [Compound 1], on β-secretase (BACE), the inhibition at 0.3 µM was 75%, the inhibition at 1 µM turned out to be 102%, the inhibition at 3 µM is 110% and the Ki was found to be 0.166 µM.
Take `COC(=O)[C@H]1CC[C@@H](N(C)C(=O)CC[C@@H](C2CCOCC2)N2Cc3cc(Oc4ccccc4)ncc3N=C2N)CC1` [Compound 32]: at β-secretase (BACE), the inhibition at 0.3 µM came to 79%, the inhibition at 1 µM worked out at 101%, the inhibition at 3 µM came out at 109% and the Ki came out at 0.02 µM.
In the case of `CC(C)[C@H](CCC(=O)N[C@H](COCc1ccccc1)C(=O)OCc1ccccc1)N1Cc2cc(Oc3ccccc3)ncc2N=C1N` [Compound 48], on β-secretase (BACE), the inhibition at 0.3 µM is 73%, the inhibition at 1 µM came out at 107%, the inhibition at 3 µM stood at 116% and the Ki was found to be 0.036 µM.
As for `CC(C)C(CCC(=O)N(CCO)C1CCC(C(=O)O)CC1)N1Cc2cc(Oc3ccccc3)ncc2N=C1N` (stereo not shown) [Compound 20], at β-secretase (BACE), the inhibition at 0.3 µM stood at 97%, the inhibition at 1 µM was found to be 102%, the inhibition at 3 µM came to 104% and affinity was put at a Ki of 0.013 µM.

(Values after US7531545B2, “2-amino-3,4-dihydro-pyrido[3,4-d]pyrimidine derivatives useful as inhibitors of β-secretase (BACE)” (Janssen Pharmaceutica, N.V., priority 2005, dated 2009).)
